From PubChem BioAssay (NCI)
Several values for one entry are separate records, joined by “and”; a condition that tells them apart may be missing. Identical values can stand only once.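 Cells were grown in 96-well plates and exposed to each compound for 48 hours at five concentrations; endpoints were interpolated linearly between bracketing concentrations, or set to the highest concentration if not reached. GI50 is the concentration that inhibits growth by half. Definition used: TGI = concentration required for complete inhibition of growth.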

Columns and labels:
Test in all cases: growth of human tumour cells (NCI), 48 h
DMS 114 small cell lung = tested on: DMS 114 small cell lung
HOP-18 NSCLC = tested on: HOP-18 NSCLC
LXFL 529 NSCLC = tested on: LXFL 529 NSCLC
RXF-631 renal = tested on: RXF-631 renal
SNB-78 CNS = tested on: SNB-78 CNS
XF 498 CNS = tested on: XF 498 CNS
MDA-N = tested on: MDA-N

| Compound | TGI (DMS 114 small cell lung) [µM] | TGI (HOP-18 NSCLC) [µM] | TGI (LXFL 529 NSCLC) [µM] | TGI (RXF-631 renal) [µM] | TGI (SNB-78 CNS) [µM] | TGI (XF 498 CNS) [µM] | TGI (MDA-N) | GI50 (MDA-N) |
| --- | --- | --- | --- | --- | --- | --- | --- | --- |
| C=C1CC2(CCS(=O)(=O)c3ccccc32)OC1=O (stereo not given) | 14.2 | 14.7 | 15.9 | 43.4 | 33.6 | 26.1 | – | – |
| CN(/N=C\c1ccnc2ccccc12)c1ccccc1 | 48.7 | > 100 | 79.7 | – | > 100 | 47.5 | – | – |
| Cc1ccc(C(=O)NCCN(C)C)c2nc3ccccc3cc12 | > 100 | 9.89 | > 100 | 12 | > 100 | 3.95 | – | – |
| O=C1C(=O)N(c2ccc(Cl)cc2)C(=O)C(=Nc2cccc3c(=O)[nH][nH]c(=O)c23)C1c1nc2ccccc2o1 (stereo not given) | – | > 100 | > 100 | > 100 | > 100 | – | – | – |
| COC12OCCN(C)C1=CC(=O)C1(C)N=NCC12 (stereo not given) | > 100 | > 100 | > 100 | – | > 100 | – | – | – |
| Cc1ccc(Sc2ccccc2N)cc1 | > 100 | > 100 | 32.9 | > 100 | > 100 | – | – | – |
| CN1C(=O)C2(c3ccccc31)C1CC3C(CO1)C1C2C3(CO)CN1C#N (stereo not given) | – | – | – | – | – | – | > 100 µM | – |
| CCCCCCCCCCOC(=O)NCCC | – | > 100 | > 100 | > 100 | – | 43.6 | – | – |
| CC(=O)OCC1OC(n2ncc(=O)[nH]c2=O)C(OC(C)=O)C1OC(C)=O (stereo not given) | – | – | – | – | – | – | > 100 µM | – |
| CC1(C)CCC(C)(C)c2cc(NC(=O)c3ccc(C(=O)O)cc3)ccc21 | – | – | – | – | – | – | > 100 µM | – |
| COc1cccc(C2SCc3nc4ccccc4n32)c1 (stereo not given) | > 100 | > 100 | – | – | > 100 | – | – | – |
| O=C(O)CN(c1ccc(F)cc1)S(=O)(=O)c1ccccc1 | – | > 100 | > 100 | > 100 | – | > 100 | – | – |
| Cc1ccc(S(=O)(=O)OCCOCCOCCOCCOCCOS(=O)(=O)c2ccc(C)cc2)cc1 | – | > 100 | > 100 | 82.2 | > 100 | – | – | – |
| [Cu+2].[NH-]C(CC(=O)O)C(=O)O.[NH-]C(CC(=O)O)C(=O)O (stereo not given) | – | – | – | – | – | – | > 100 µM | > 100 µM |
| O=[N+]([O-])c1oc2ccc3ccccc3c2c1CCO | – | – | – | – | – | – | 4.07 µM | – |
| CN(C)c1ccccc1[CH2][Ga]([Cl])[CH2]c1ccccc1N(C)C | – | – | – | – | – | – | 3.08 µM | 1.66 µM |
| N#CCc1nnc(N)o1 | – | – | > 100 | > 100 | > 100 | > 100 | – | – |
| CC(C)=NNC(=S)NC12CC3CC(CC(C3)C1)C2 | – | – | > 100 | > 100 | > 100 | > 100 | – | – |
| Cc1ccc(C2=Nc3ccccc3S(=O)C(c3ccc4c(c3)OCO4)C2)cc1 (stereo not given) | – | > 100 | > 10 | – | 86.9 | 36.1 | – | – |
| O=C(O)Cc1ccc(N=Nc2c(O)c(C(=O)O)cc3ccccc23)cc1 | – | – | – | – | – | – | > 100 µM | – |
| COc1ccc(OC)c(/C=C/c2ccnc3ccccc23)c1 | – | – | – | – | – | – | 0.286 µM | – |
| O=C(O)c1c2c(cc3c(=O)cc(-c4ccccc4)oc13)CCCC2 | – | – | > 100 | > 100 | > 100 | > 100 | – | – |
| CN1CCN(CCCN2c3ccccc3Sc3ccc(Cl)cc32)CC1 | – | – | – | – | – | – | 61.4 µM | 42.1 µM |
| c1ccc2c(CNCCCCCCCCNCc3cccc4ccccc34)cccc2c1 | 3.48 | 18.5 | 3.22 | – | 4.45 | 3.24 | – | – |
| O=[N+]([O-])C=C1c2ccccc2-c2ccccc21 | – | – | 28.2 | – | 31.1 | – | – | – |
| OCC1CCCC1O (stereo not given) | – | – | – | – | – | – | > 100 µM | – |
| CCOC(=O)CN(c1ccccc1)c1nc(=[N+](C)C)ss1 | 27.7 | > 100 | – | – | > 100 | – | – | – |
| COc1cc(O)c2c(c1)C(=O)C1=C(C2=O)C(O)C[C@@](C)(O)C1 (stereo not given in full) | 3.26 | – | 2.1 | – | 4.67 | 3.46 | – | – |
| O=C1CC(CC(OCc2ccccc2)C(OCc2ccccc2)C(COCc2ccccc2)OCc2ccccc2)CC(=O)N1 (stereo not given) | – | – | – | – | – | – | > 100 µM and 27.7 µM | > 100 µM and 12.5 µM |
